According to publication PMC9369610, “Pro-Apoptotic and Pro-Autophagic Properties of Cardenolides from Aerial Parts of Pergularia tomentosa” (Molecules, 2022):
pIC50: −log10 of the molar value.

How the values were obtained:
HepG2 cells [1] = experiment: Transwell migration assay; format: cell-based, human; conditions: HepG2, 1 μM, 18 h
Protocol: Transwell filters (coated with collagen) in serum-free media containing 0.1% of BSA, with a PET membrane with 8 μm pores (BD Biosciences, Milan, Italy), were rehydrated for 2 h at 37 °C. HepG2 were seeded in the upper chambers at a density of 75 × 10^3 cells in MEM with 0.1% BSA and treated with or without 1 µM of Pergularia compounds. MEM−0.1%BSA, supplemented with 10% FBS, was added to the lower chamber as chemoattractant. Control wells without 10% FBS were included to assess random migration. After incubation at 37 °C in 5% CO2 for 18 h, the migrated cells were fixed with 4% paraformaldehyde for 5 min, permeabilised with methanol for 20 min and stained with crystal violet 0.5% for 15 min at room temperature. The cells on the lower side of the filter were allowed to dry before counting. Eight separate bright-field images were randomly acquired of each filter using an Olympus CKX41 Image Analyzer. The cells in each image were counted and analysed compared to control-transfected cells.

HepG2 cells [2] = experiment: BrdU incorporation (proliferation) assay; format: cell-based, human; conditions: HepG2, 1 μM, 24 h
Protocol: Cell proliferation was analysed by a BrdU (Roche Diagnostics SpA, Monza, Italy) incorporation assay, as previously described. Briefly, HepG2 cells, seeded at adensity of 3 × 10^3/cm^2 on round glass cover slips, were treated for 24 h with P. tomentosa compounds at 1 μM. Then, BrdU was added to cell medium (final concentration, 100 μM) for 1 h. Cells were fixed (in 3% paraformaldehyde, 10 min), permeabilised (in 0.2% Triton X-100, 5 min) and treated with HCl 1.5 N (5 min). Finally, cover slips were incubated with a monoclonal antibody against BrdU (Sigma-Aldrich, Milan, Italy), 1:100, and with a TRITC-conjugated secondary antibody, 1:100. After staining with Hoechst, cover slips were mounted with Mowiol (Sigma, Milan, Italy). […] Images were acquired with Axiocam MRc5 and processed with ImageJ Launcher. The number of cells into S-phase was expressed as the ratio between the number of cells incorporating BrdU and the total number of cells.

[3] = test system: HepG2, Caco-2, MRC5 and HUVEC cells; experiment: MTT assay, comparison of cytotoxic effects at 1 μM on four cell types; format: cell-based, human; conditions: 24 h, Caco-2, HepG2, MRC5, HUVEC
From the text: We focused attention on 12β,6′-dihydroxycalotropin (1), 16α-hydroxycalotropin (2), 12β-hydroxycalactin (3), calotropin (4), and calactin (5), among those described by Hosseini et al., and tested their cytotoxic activity by a 3-(4,5-dime-thylthiazol-2-yl)-2,5-diphenylte-tetrazolium bromide (MTT) assay on two cancer cell lines (HepG2 and Caco-2), not previously employed, on an immortalised nontumoral cell line (MRC5) and normal primary cells (HUVEC).
Figure 2 Comparison of cytotoxic effects of P. tomentosa compounds on cancer cell lines (Caco-2 and HepG2), on an immortalised cell line (MRC5) and normal cells (HUVEC). Cells were treated for 24 h with 1 μM of each compound. Residual viability was measured by the MTT assay. Values are the means ± standard error (SE) of three independent experiments performed in triplicate. Statistical analysis was performed using the Student’s t-test. * p < 0.05 and ** p < 0.01 vs. cells treated with the vehicle (DMSO).
(§1) The human liver hepatocellular carcinoma cell line, HepG2, and the human adenocarcinoma of colon cell line, Caco-2, were cultured in Eagle’s Minimum Essential medium supplemented with 1% (v/v) non-essential amino acids, 0.2 mM L-glutamine, 50 units/mL penicillin, 50 μg/mL streptomycin and 10% (v/v) or 20% (v/v) fetal bovine serum (Sigma Aldrich, Milan, Italy) for HepG2 or Caco-2, respectively. The human embryonal lung fibroblast cell line, MRC5, was cultured in Dulbecco’s Modified Eagle medium (Sigma Aldrich, Milan, Italy) supplemented with 10% (v/v) fetal bovine serum, 0.2 mM L-glutamine, 50 units/mL penicillin and 50 μg/mL streptomycin. HUVEC cells were cultured in endothelial growth medium-2, supplemented with fetal bovine serum (2%), VEGF (0.1%), rH FGF-B (0.4%), rH EGF (0.1%), GA-1000 (0.1%), hydrocortisone (0.04%), R3-IGF-1 (0.1%), heparin (0.1%) and ascorbic acid (0.1%). Cells were maintained at 37 °C in a 5% CO2, 95% air-humidified atmosphere and passaged twice a week. Cell lines were obtained from Interlab Cell Line Collection, Istituto Nazionale per la Ricerca sul Cancro, Genoa, Italy. HUVEC were obtained from Lonza (Milan, Italy).
(§2) An MTT assay was used to analyse cell viability. Cells were seeded in 96 wells at the density of 2 × 10^4/cm^2 and, after 24 h, they were treated with P. tomentosa compounds or with the vehicle (DMSO). After a further 24 h of treatment, 0.5 mg/mL of MTT was added to the cell medium and incubated for 1.5 h at 37 °C. The resulting formazan crystals were dissolved in 100 μL of DMSO and absorbances were measured at 595 nm and 655 nm. The background signals at 655 nm were subtracted from 595 nm signals, and data were expressed as a percent of cell viability. The concentration of each compound that is required for 50% inhibition in vitro (IC50) was calculated as described in Husseini et al.. IC50 values were obtained for Caco-2, HepG2 and MRC5 cells by performing MTT assays with concentrations ranging from 0.01 μg/mL to 5 μg/mL.

MRC5 cells = experiment: MTT cell viability assay, IC50 in MRC5 cells; format: cell-based; conditions: Homo sapiens, 24 h, SE less than 10% of value
Protocol: as §1, §2

HepG2 cells [4] = experiment: TUNEL assay; format: cell-based, human; conditions: HepG2, 1 μM, 24 h
Protocol: Microscopic evaluation of apoptosis was performed by a TUNEL assay, using a commercial kit (Fragment End Labelling (FragEL™), […]) DNA Fragmentation Detection Kit, Sigma-Aldrich, Milan, Italy) according to the manufacturer-provided protocol, with some modifications. Briefly, cells were seeded on glass cover slips placed in 24-well plates at a density of 3.5 × 10^3/cm^2 and, after 48 h, they were treated with 1 μΜ of each compound for a further 24 h. Cells were fixed in 3% paraformaldehyde for 10 min, permeabilised in 0.2% Triton X-100 for 5 min and treated with HCl 1.5 N for 8 min. Finally, cover slips were equilibrated in equilibration buffer (10 min) and incubated with label mix containing the TdT enzyme for 1 h at 37 °C, then mounted with mounting media. Microscope observations were performed by the AxioSkop 40 fluorescent microscope. Images were acquired with Axiocam MRc5 (Carl Zeiss MicroImaging, Inc., Jena, Germany).

Caco-2 cells = experiment: MTT cell viability assay, IC50 in Caco-2 cells; format: cell-based; conditions: Homo sapiens, 24 h, SE less than 10% of value
Protocol: as §1, §2

HepG2 cells [5] = experiment: MTT cell viability assay, IC50 in HepG2 cells; format: cell-based; conditions: Homo sapiens, 24 h, SE less than 10% of value
Protocol: as §1, §2

HepG2 cells [6] = experiment: Scratch-wound-healing assay; format: cell-based, human; conditions: HepG2, 1 μM, 24, 48 and 72 h
Protocol: Cells were seeded at a density of 5 × 10^4 cells/well in 24-well plates and allowed to grow for 72 h, reaching confluence. Mitomycin C (10 μg/mL) was added to inhibit proliferation, and then a sterile 2–10 μL pipette tip was used to perform a vertical scratch in the monolayer of each well. Detached cells were removed by washing with phosphate-buffered saline. Then, 300 μL of fresh medium containing P. tomentosa compounds (1 μM) or vehicle was added to each well and incubated for 72 h. Images of migrating cells were taken at 0, 24, 48 and 72 h, by using an Olympus CKX41 fluorescent microscope (Olympus Italia srl, Segrate, Italy) and elaborated by the ImageJ software. For each scratch, wound width was calculated as the average distance between the edges in four different sites. Then, reductions in wound wights at 24, 48 and 72 h were expressed as % of the width at time zero.

caspase-3 in HepG2 cells [7] = experiment: Caspase-3 colorimetric activity assay; format: cell-based, human; conditions: HepG2, 1 μM, 24 h
Protocol: To evaluate apoptosis, a caspase-3 colorimetric assay was performed. Briefly, HepG2 cell lines were seeded in plates of 60 mm diameter at a density of 3.5 × 10^4/cm^2 and, after 24 h, treated with P. tomentosa compounds (1 μM each) for 24 h. Then, cells were harvested in phosphate-buffered saline, collected by centrifugation and lysed in a buffer containing 50 mM HEPES, 0.1% CHAPS, 10 mM dithiothreitol, 100 mM NaCl, 1 mM EDTA and 10% sucrose. Proteins (30 μg) were incubated for 2 h at 37 °C in a reaction mixture containing the caspase-3 substrate (acetyl-Asp-Glu-Val-Asp, labelled with p-nitroanilide) (Sigma-aldrich, Milan, Italy) at a concentration of 0.2 mM. Finally, the release of free p-nitroanilide was monitored spectrophotometrically at 405 nm. Enzyme activity was expressed as percentage of absorption of treated cells versus vehicle-treated cells.

caspase-3 in HepG2 cells [8] = experiment: Western blot of cleaved caspase-3; format: cell-based, human; conditions: HepG2, 2 μM, 7 h, Western blot densitometry
Protocol: To analyse the protein levels of p53, caspase-3, GRP78, LC3 and p62, HepG2 cells were treated with P. tomentosa compounds (1 or 2 μM) or with DMSO for the indicated times; then, Western blot analyses were performed. Briefly, cells were lysed in RIPA buffer (20 mM Tris-HCl, pH 7.5, 150 mM NaCl, 1 mM EDTA, 1 mM dithiothreitol, 0.1% sodium dodecyl sulphate, 1% triton X-100, 1 mM orthovanadate, and a cocktail of inhibitors (Sigma-Aldrich, Milan, Italy)). After separation on a sodium dodecyl sulphate-polyacrylamide gel electrophoresis and transfer to a poly-vinylidene fluoride membrane (Euroclone, Milan, Italy), the following primary antibodies were used, at a dilution of 1:1000 in tris-buffered saline containing 1% non-fat dry milk, overnight at 4 °C: mouse anti-p53 antibody, mouse anti-MAP LC3 β antibody, mouse anti-p62 antibody (DBA, Milan, Italy), mouse anti-GRP78 antibody, and mouse anti-caspase 3 antibody (Thermo Fisher Scientific, Milan, Italy). For normalisation, a mouse anti-GAPDH antibody (Microtech, Naples, Italy) was used.

XBP1 in HepG2 cells = experiment: XBP1 splicing detection; format: cell-based, human; conditions: HepG2, 1 μM, 4 h
Protocol: To detect the unspliced and the spliced form of XBP1, we followed the protocol described by Martucciello et al.. After treatments for 4 h with 1 μM of each compound, or DMSO, or thapsigargin (1 μM), RNA was isolated and retro-transcripted. PCR analyses were performed with the following primers: 5′- […]-3′; 5′-[…]-3′. After 35 cycles (heating at 94 °C for 30 s, annealing at 58 °C for 45 s, and polymerisation at 72 °C for 60 s), amplified cDNA was visualised on 2.5% agarose gel, stained with an ethidium bromide solution.

Row | Structure (SMILES) | effect on transwell migration (HepG2 cells [1]) | effect on BrdU incorporation / cell cycle progression (HepG2 cells [2]) | relative cytotoxicity (residual viability, MTT) [3] | pIC50 (MRC5 cells) | apoptotic nuclei (TUNEL) (HepG2 cells [4]) | pIC50 (Caco-2 cells) | pIC50 (HepG2 cells [5]) | effect on wound closure (HepG2 cells [6]) | caspase-3 activity (caspase-3 in HepG2 cells [7]) | reduction of number of cells that incorporated BrdU compared to the vehicle (HepG2 cells [2]) | cleaved caspase-3 (caspase-3 activation) (caspase-3 in HepG2 cells [8]) | XBP1 splicing (XBP1 in HepG2 cells)
1 | C[C@@]12C(C3=CC(=O)OC3)CC[C@]1(O)C1CCC3C[C@H]4O[C@@H]5O[C@H](CO)C[C@H](O)[C@]5(O)O[C@@H]4C[C@]3(C=O)C1C[C@H]2O (stereo partly drawn) [Compound 1, 12β,6′-dihydroxycalotropin] | reduce migration | slightly (but not significantly) reduced BrdU incorporation | intermediate cytotoxicity | 5.66 | less evident | 5.81 | 5.58 | interfered with the wound closure after 48 and 72 h | – | – | – | –
2 | C[C@@H]1C[C@H](O)[C@]2(O)O[C@@H]3C[C@@]4(C=O)C(CCC5C4CC[C@]4(C)C(C6=CC(=O)OC6)[C@H](O)C[C@]54O)C[C@H]3O[C@@H]2O1 (stereo partly drawn) [Compound 2, 16α-hydroxycalotropin] | – | significantly affected cell cycle progression | intermediate cytotoxicity | 5.64 | less evident | 5.61 | 5.63 | interfered with the wound closure at 72 h only | – | – | – | –
3 | C[C@@H]1C[C@@H](O)[C@]2(O)O[C@@H]3C[C@@]4(C=O)C(CCC5C4C[C@@H](O)[C@]4(C)C(C6=CC(=O)OC6)CC[C@]54O)C[C@H]3O[C@@H]2O1 (stereo partly drawn) [Compound 3, 12β-hydroxycalactin] | reduce migration | slightly (but not significantly) reduced BrdU incorporation | less cytotoxic | 5.22 | undetectable | 5.35 | 5.20 | had an effect at 48 h only | did not seem to affect enzyme activity | – | – | –
4 | C[C@@H]1C[C@H](O)[C@]2(O)O[C@@H]3C[C@@]4(C=O)[C@@H](CC[C@@H]5[C@@H]4CC[C@]4(C)[C@@H](C6=CC(=O)OC6)CC[C@]54O)C[C@H]3O[C@@H]2O1 [Compound 4, calotropin] | – | significantly affected cell cycle progression | most cytotoxic | 6.37 | occurrence of apoptotic nuclei | 6.12 | 6.08 | not affect cell migration, at any time | – | about 40% | most active | –
5 | C/C=C(/C)C(=O)O[C@H]1C(C)=C2[C@H]([C@@H]1OC(=O)CCCCCCC)[C@@](C)(OC(C)=O)C[C@H](OC(=O)CCC)[C@@]1(O)[C@H]2OC(=O)[C@@]1(C)O [thapsigargin] | – | – | – | – | – | – | – | – | – | – | – | appearance of the spliced form
